The numbers were not newly measured in patent publication US20010049373A1, “Materials and methods for killing nematodes and nematode eggs” (priority 2000, published 2001), which cites them from elsewhere.

Series [1] relates to Colorado potato beetle, potato tuberworm, beet armyworm, diamondback moth, gypsy moth, and the European corn borer. To be noted: cited from earlier work.
Series [2] relates to root-knot nematode, Meloidogyne incognita. To be noted: cited from earlier work.
For series [3], the system named is tomatoes or cucumbers. To be noted: rates of up to 10 kg/ha; cited from earlier work.

As for Avermectin B1, the “effect on insect pests” value in series [1] is “effective”.
With `CC[C@H](C)[C@H]1O[C@]2(CC(O)[C@@H]1C)C[C@@H]1C[C@@H](C/C=C(\C)[C@@H](OC3CC(OC)C(OC4CC(OC)C(O)C(C)O4)C(C)O3)[C@@H](C)/C=C/C=C3\CO[C@@H]4[C@H](O)C(C)=C[C@@H](C(=O)O1)[C@]34O)O2` (stereo partly shown) [Avermectin B2a], the “activity against the root-knot nematode” value in series [2] (Meloidogyne incognita) was “active”. For the same molecule, the “potency relative to commercial contact nematicides” value in series [2] (incorporated into soil at 0.16-0.25 kg/ha) is recorded as 10-30 times. In series [3], the “toxicity to tomatoes or cucumbers” value was “not toxic”.
